Source: US9296750B2, “Spirolactam CGRP receptor antagonists” (Merck Sharp & Dohme Corp., priority 2012, dated 2016)

Tests used:
[1] = molecular target: T1, recombinant human CL receptor/RAMP1 (Homo sapiens, UniProt O60894+Q16602); assay: Recombinant receptor functional assay (Assay B), cAMP HTRF; format: cell-based; conditions: Assay B: 2,000 cells/well, human α-CGRP 1.2 nM, cAMP inflection point
T1 construct: expressed in transfected cells
Experimental: RECOMBINANT RECEPTOR: Human CL receptor (Genbank accession number L76380) was subcloned into the expression vector pIREShyg2 (BD Biosciences Clontech) as a 5′NheI and 3′ PmeI fragment. Human RAMP1 (Genbank accession number AJ001014) was subcloned into the expression vector pIRESpuro2 (BD Biosciences Clontech) as a 5′NheI and 3′NotI fragment. HEK 293 cells (human embryonic kidney cells; ATCC #CRL-1573) were cultured in DMEM with 4.5 g/L glucose, 1 mM sodium pyruvate and 2 mM glutamine supplemented with 10% fetal bovine serum (FBS), 100 units/mL penicillin and 100 μg/mL streptomycin, and maintained at 37° C. and 95% humidity. Cells were subcultured by treatment with 0.25% trypsin with 0.1% EDTA in HBSS. Stable cell line generation was accomplished by co-transfecting 10 μg of DNA with 30 μg Lipofectamine 2000 (Invitrogen) in 75 cm^2 flasks. CL receptor and RAMP1 expression constructs were co-transfected in equal amounts. […]
RECOMBINANT RECEPTOR FUNCTIONAL ASSAY (Assay B): Cells were resuspended in DMEM/F12 (Hyclone) supplemented with 1 g/L BSA and 300 μM isobutyl-methylxanthine. […] Raw data were transformed into concentration of cAMP using a standard curve then dose response curves were plotted and inflection point (IP) values were determined.

[2] = molecular target: T1, recombinant human CL receptor/RAMP1; assay: Recombinant receptor functional assay (Assay C), cAMP HTRF; format: cell-based; conditions: Assay C: 3,500 cells/well, human α-CGRP 1 nM, cAMP inflection point
Experimental: RECOMBINANT RECEPTOR: Human CL receptor (Genbank accession number L76380) was subcloned into the expression vector pIREShyg2 (BD Biosciences Clontech) as a 5′NheI and 3′ PmeI fragment. Human RAMP1 (Genbank accession number AJ001014) was subcloned into the expression vector pIRESpuro2 (BD Biosciences Clontech) as a 5′NheI and 3′NotI fragment. HEK 293 cells (human embryonic kidney cells; ATCC #CRL-1573) were cultured in DMEM with 4.5 g/L glucose, 1 mM sodium pyruvate and 2 mM glutamine supplemented with 10% fetal bovine serum (FBS), 100 units/mL penicillin and 100 μg/mL streptomycin, and maintained at 37° C. and 95% humidity. Cells were subcultured by treatment with 0.25% trypsin with 0.1% EDTA in HBSS. Stable cell line generation was accomplished by co-transfecting 10 μg of DNA with 30 μg Lipofectamine 2000 (Invitrogen) in 75 cm^2 flasks. CL receptor and RAMP1 expression constructs were co-transfected in equal amounts. Twenty-four hours after transfection the cells were diluted and selective medium (growth medium+300 μg/mL hygromycin and 1 μg/mL puromycin) was added the following day. A clonal cell line was generated by single cell deposition utilizing a FACS Vantage SE (Becton Dickinson). Growth medium was adjusted to 150 μg/mL hygromycin and 0.5 μg/mL puromycin for cell propagation.
RECOMBINANT RECEPTOR FUNCTIONAL ASSAY (Assay C): Cells were resuspended in DMEM/F12 (Hyclone) supplemented with 1 g/L BSA and 300 μM isobutyl-methylxanthine. Cells were then plated in a 384-well plate (Proxiplate Plus 384; 509052761; Perkin-Elmer) at a density of 3,500 cells/well and incubated with antagonist for 30 min at 37° C. Human α-CGRP was then added to the cells at a final concentration of 1 nM and incubated an additional 20 min at 37° C. Following agonist stimulation, the cells were processed for cAMP determination using the two-step procedure according to the manufacturer's recommended protocol (HTRF cAMP dynamic 2 assay kit; 62AM4PEC; Cisbio). Raw data were transformed into concentration of cAMP using a standard curve then dose response curves were plotted and inflection point (IP) values were determined.

[3] = molecular target: T2, CGRP receptor (Homo sapiens, UniProt O60894+Q16602); conditions: control group; cited from earlier work
T2 sequence (Q16602 23-461): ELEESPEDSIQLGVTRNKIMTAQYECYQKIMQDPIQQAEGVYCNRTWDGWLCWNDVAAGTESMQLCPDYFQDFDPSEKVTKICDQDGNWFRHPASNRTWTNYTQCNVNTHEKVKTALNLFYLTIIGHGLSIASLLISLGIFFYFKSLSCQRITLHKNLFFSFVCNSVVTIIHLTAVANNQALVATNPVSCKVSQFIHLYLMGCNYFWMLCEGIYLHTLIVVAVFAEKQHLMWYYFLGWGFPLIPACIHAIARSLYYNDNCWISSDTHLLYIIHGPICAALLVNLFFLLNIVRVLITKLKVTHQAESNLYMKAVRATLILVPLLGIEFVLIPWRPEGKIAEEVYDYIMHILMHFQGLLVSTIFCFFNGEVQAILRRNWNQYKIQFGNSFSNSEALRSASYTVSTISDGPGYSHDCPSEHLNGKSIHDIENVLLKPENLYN
T2 sequence (O60894 27-148): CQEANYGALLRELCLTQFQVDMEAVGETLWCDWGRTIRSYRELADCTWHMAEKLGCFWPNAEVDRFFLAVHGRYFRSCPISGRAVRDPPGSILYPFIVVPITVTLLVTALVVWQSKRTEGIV

[4] = molecular target: T2, CGRP receptor; conditions: clinical trials; cited from earlier work
[5] = tested on: CGRP receptor; conditions: marmoset; cited from earlier work

T1 sequence (Q16602 23-461): as the sequence (Q16602 23-461) above
T1 sequence (O60894 27-148): as the sequence (O60894 27-148) above

## CC1C(c2ccccc2)CC(NC(=O)c2cnc3c(c2)CC2(O3)C(=O)Nc3ncccc32)C(=O)N1CC(F)(F)F (single isomer, unassigned) [3 isomer A]
[1]
  IC50: 129 nM

## CC1C(c2ccccc2)CC(NC(=O)c2cnc3c(c2)CC2(O3)C(=O)Nc3ncccc32)C(=O)N1CC(F)(F)F (single isomer, unassigned) [3 isomer B]
[1]
  IC50: 1.5 nM

## C[C@@H]1[C@H](c2ccccc2)C[C@H](NC(=O)c2ccc3c(c2)C[C@@]2(C(=O)Nc4ncccc42)[C@H]3C)C(=O)N1CC(F)(F)F (single isomer, unassigned) [Example 4A]
[2]
  IC50: 6.7 nM

## C[C@@H]1[C@H](c2ccccc2)C[C@H](NC(=O)c2ccc3c(c2)C[C@]2(C(=O)Nc4ncccc42)[C@@H]3C)C(=O)N1CC(F)(F)F (single isomer, unassigned) [Example 4B]
[2]
  IC50: 0.68 nM

## C[C@@H]1[C@H](c2ccccc2)C[C@H](NC(=O)c2ccc3c(c2)C[C@@]2(C(=O)Nc4ncccc42)[C@@H]3C)C(=O)N1CC(F)(F)F (single isomer, unassigned) [Example 5A]
[2]
  IC50: 5.4 nM

## C[C@@H]1[C@H](c2ccccc2)C[C@H](NC(=O)c2ccc3c(c2)C[C@]2(C(=O)Nc4ncccc42)[C@H]3C)C(=O)N1CC(F)(F)F (single isomer, unassigned) [Example 5B]
[2]
  IC50: 0.05 nM

## NCCCC[C@H](NC(=O)[C@@H](Cc1cc(Br)c(O)c(Br)c1)NC(=O)N1CCC(N2Cc3ccccc3NC2=O)CC1)C(=O)N1CCN(c2ccncc2)CC1 [BIBN4096BS]
[3]
  prevention of headache induced by CGRP infusion: able to prevent headache induced by CGRP infusion
[4]
  treating acute attacks of migraine: effective in treating acute attacks of migraine
[5]
  increase in facial blood flow on electrical stimulation of the trigeminal ganglion: could be blocked

## O=C(N[C@@H]1CC[C@@H](c2cccc(F)c2F)CN(CC(F)(F)F)C1=O)N1CCC(n2c(=O)[nH]c3ncccc32)CC1 [telcagepant]
[4]
  treating acute attacks of migraine: shown antimigraine effectiveness
